Measured values from ChEMBL document CHEMBL5543066, “Dual COX-2/15-LOX inhibitors: A new avenue in the prevention of cancer” (Eur J Med Chem, 2023).
Values belong to the compound of their own block, whether it stands above or below them.

Columns and labels:
Rattus norvegicus = experiment: Anti-inflammatory activity against carrageenan-induced paw edema in Wistar albino rat assessed as inhibition of paw edema at 50 mg/kg, sc administered for 14 days relative to control; type: functional; parameters: scale not given: the % may be the effect or the level left; conditions: time 14 day
[1] = Inhibition of soybean 15-LOX; parameters: species or system Glycine max
[2] = Inhibition of soybean 15-LOX by spectrophotometric method; parameters: species or system Glycine max
[3] = Inhibition of soybean 15-LOX by chemiluminescence based analysis; parameters: species or system Glycine max
[4] = target: T1, Prostaglandin G/H synthase 2 (Homo sapiens, UniProt P35354); experiment: Inhibition of COX-2 (unknown origin) by Enzyme immune assay
T1 sequence (P35354 whole entry): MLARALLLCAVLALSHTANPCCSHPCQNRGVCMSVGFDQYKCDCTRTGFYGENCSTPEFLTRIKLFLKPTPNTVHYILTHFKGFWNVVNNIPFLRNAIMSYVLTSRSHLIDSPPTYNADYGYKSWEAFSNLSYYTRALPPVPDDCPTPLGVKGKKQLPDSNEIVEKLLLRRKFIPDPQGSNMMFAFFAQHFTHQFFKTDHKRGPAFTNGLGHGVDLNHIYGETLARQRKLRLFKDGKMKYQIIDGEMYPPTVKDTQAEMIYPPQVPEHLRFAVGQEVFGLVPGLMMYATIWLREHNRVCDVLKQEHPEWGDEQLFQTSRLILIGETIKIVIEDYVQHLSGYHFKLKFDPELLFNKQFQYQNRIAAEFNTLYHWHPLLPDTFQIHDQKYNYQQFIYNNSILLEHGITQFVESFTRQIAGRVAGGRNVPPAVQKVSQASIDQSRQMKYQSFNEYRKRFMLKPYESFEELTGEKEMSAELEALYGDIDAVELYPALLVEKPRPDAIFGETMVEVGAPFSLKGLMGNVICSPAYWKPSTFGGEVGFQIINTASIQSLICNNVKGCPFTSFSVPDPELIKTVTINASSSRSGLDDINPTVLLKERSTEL

Mononuclear cell line = experiment: Induction of apoptosis in human Mononuclear cell line assessed as early apoptosis at 10 uM incubated for 48 hrs by AnnexinV-FITC/PI staining based flow cytometry relative to control; type: functional
[5] = target: T1, Prostaglandin G/H synthase 2; experiment: Inhibition of COX-2 (unknown origin)
HepG2 = experiment: Anticancer activity against human HepG2 cells assessed as cell viability measured after 72 hrs by MTT assay; type: functional, cell-based; conditions: HepG2, 72 h
Caco-2 = experiment: Antiproliferative activity against human Caco-2 cells assessed as reduction in cell growth incubated for 72 hrs by MTT assay; type: functional, cell-based; conditions: Caco-2, 72 h
PC-3 = experiment: Antiproliferative activity against human PC-3 cells assessed as reduction in cell growth incubated for 72 hrs by MTT assay; type: functional, cell-based; conditions: PC-3, 72 h
A549 = experiment: Anticancer activity against human A549 cells assessed as reduction in cell viability measured for 72 hrs by MTT assay; type: functional, cell-based; conditions: A549, 72 h
MCF7 = experiment: Antitumor activity against human MCF7 cells assessed as reduction in cell viability measured for 72 hrs by MTT assay; type: functional, cell-based; conditions: MCF7, 72 h
[6] = target: T2, Seed linoleate 13S-lipoxygenase-1 (Glycine max, UniProt P08170); experiment: Inhibition of soybean LOX-1 using linoleic acid as substrate
T2 sequence (P08170 whole entry): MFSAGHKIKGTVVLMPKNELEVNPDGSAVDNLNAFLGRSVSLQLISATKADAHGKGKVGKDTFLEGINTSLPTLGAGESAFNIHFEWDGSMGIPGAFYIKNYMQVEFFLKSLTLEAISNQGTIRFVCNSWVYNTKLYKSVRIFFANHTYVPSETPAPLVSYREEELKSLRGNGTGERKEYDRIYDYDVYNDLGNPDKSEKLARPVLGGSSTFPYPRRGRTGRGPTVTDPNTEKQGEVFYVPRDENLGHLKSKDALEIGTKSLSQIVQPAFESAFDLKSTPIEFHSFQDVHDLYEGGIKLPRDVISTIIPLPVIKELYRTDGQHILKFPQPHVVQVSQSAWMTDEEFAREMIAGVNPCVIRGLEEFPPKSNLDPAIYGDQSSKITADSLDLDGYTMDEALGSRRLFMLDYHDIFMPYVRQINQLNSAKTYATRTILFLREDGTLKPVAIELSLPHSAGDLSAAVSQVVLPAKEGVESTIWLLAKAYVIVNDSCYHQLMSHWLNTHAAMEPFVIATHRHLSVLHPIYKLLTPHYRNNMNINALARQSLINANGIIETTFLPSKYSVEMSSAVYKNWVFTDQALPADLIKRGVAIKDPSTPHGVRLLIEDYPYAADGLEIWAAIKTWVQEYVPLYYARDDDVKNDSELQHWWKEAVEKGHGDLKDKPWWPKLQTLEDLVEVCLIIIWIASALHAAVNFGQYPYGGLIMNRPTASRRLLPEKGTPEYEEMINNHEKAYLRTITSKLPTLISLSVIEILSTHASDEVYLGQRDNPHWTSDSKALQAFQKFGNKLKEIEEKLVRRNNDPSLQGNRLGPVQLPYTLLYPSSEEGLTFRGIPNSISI

[7] = target: T1, Prostaglandin G/H synthase 2; experiment: Inhibition of human recombinant COX-2
[8] = Inhibition of soybean 15-LOX colorimetric assay; parameters: species or system Glycine max
[9] = Inhibition of human recombinant sPLA2-V
[10] = Inhibition of soybean lipoxygenase; parameters: species or system Glycine max
[11] = target: Prostaglandin G/H synthase 1 (Homo sapiens) (UniProt P23219); experiment: Inhibition of human COX-1 at 10 uM relative to control
Prostaglandin G/H synthase 1 (Homo sapiens), sequence (P23219 whole entry): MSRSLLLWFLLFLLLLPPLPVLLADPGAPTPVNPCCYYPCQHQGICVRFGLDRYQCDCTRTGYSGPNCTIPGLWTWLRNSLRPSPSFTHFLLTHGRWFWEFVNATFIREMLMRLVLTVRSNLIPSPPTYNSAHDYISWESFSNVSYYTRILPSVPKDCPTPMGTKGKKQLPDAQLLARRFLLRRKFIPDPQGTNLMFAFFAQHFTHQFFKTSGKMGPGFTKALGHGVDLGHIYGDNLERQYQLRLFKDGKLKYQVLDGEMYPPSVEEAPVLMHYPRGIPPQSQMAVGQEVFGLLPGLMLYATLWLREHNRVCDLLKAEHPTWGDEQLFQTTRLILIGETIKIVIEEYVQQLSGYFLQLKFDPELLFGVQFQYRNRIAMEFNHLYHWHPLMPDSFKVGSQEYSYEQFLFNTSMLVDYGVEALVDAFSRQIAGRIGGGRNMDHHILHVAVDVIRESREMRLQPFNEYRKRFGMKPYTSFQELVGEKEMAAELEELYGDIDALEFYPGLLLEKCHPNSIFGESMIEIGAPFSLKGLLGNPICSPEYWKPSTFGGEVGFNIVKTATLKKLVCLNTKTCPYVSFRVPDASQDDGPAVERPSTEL

Structure (SMILES): CCOc1cc(N)n2nc(Nc3cc(OC)ccn3)c(C#N)c2n1
Activity (Rattus norvegicus): 46%

Structure (SMILES): COc1ccc2cc([C@H](C)C(=O)O)ccc2c1 [NAPROXEN]
IC50 [1]: 3.52 µM

Structure (SMILES): CCOC(=O)c1sc(N/N=C/c2c(F)cccc2Cl)nc1C
IC50 [2]: 0.12 µM

Structure (SMILES): O=c1c(O)c(-c2ccc(O)c(O)c2)oc2cc(O)cc(O)c12 [QUERCETIN]
IC50 [1]: 4.84 µM
Activity (Mononuclear cell line): 4.26%

Structure (SMILES): O=C(Cc1ccccc1Nc1c(Cl)cccc1Cl)N/N=C1\C(=O)N(Cc2ccccc2)c2ccc(Cl)cc21
IC50 [1]: 4.61 µM

Structure (SMILES): O=C(Cc1ccccc1Nc1c(Cl)cccc1Cl)N/N=C1\C(=O)N(Cc2ccccc2)c2ccccc21
IC50 [1]: 6.64 µM

Structure (SMILES): O=C1N/C(=N\c2nnc(-c3ccc(O)cc3)s2)S/C1=C\c1ccccc1
IC50 [1]: 11 µM
IC50 [5]: 0.07 µM

Structure (SMILES): CN1C(C(=O)Nc2ccccn2)=C(O)c2sccc2S1(=O)=O [TENOXICAM]
IC50 [1]: 49.5 µM

Structure (SMILES): CCn1c(-n2cc(/C=N/N=c3\scc(-c4ccc(Br)cc4)n3-c3ccccc3)c(-c3ccccc3)n2)nc2c1c(=O)n(C)c(=O)n2C
IC50 (HepG2): 18.5 µM
IC50 (Caco-2): 18.5 µM
IC50 (PC-3): 18.5 µM
IC50 (A549): 18.5 µM
IC50 (MCF7): 18.5 µM

Structure (SMILES): COc1ccc2cc(C(C)C(=O)O/N=C(\N)c3ccc(OC)c(OC)c3)ccc2c1 (stereo not given)
IC50 [4]: 0.0064 µM

Structure (SMILES): CC(c1cc2ccccc2s1)N(O)C(N)=O (stereo not given) [ZILEUTON]
IC50 [1]: 15 µM

Structure (SMILES): CC(=O)c1cc2ccc(OC/C=C(\C)CC/C=C(\C)CCC=C(C)C)cc2oc1=O
IC50 [6]: 0.68 µM

Structure (SMILES): CCn1c(-n2cc(/C=N/N=C3\SCC(=O)N3c3ccccc3)c(-c3ccccc3)n2)nc2c1c(=O)n(C)c(=O)n2C
IC50 (HepG2): 18.5 µM
IC50 (Caco-2): 18.5 µM
IC50 (PC-3): 18.5 µM
IC50 (A549): 18.5 µM
IC50 (MCF7): 18.5 µM

Structure (SMILES): O=C(/C=C/c1ccc(Br)cc1)c1cc(-n2cc(CN3C(=O)C(=O)c4ccccc43)nn2)ccc1O
IC50 [7]: 1.41 µM

Structure (SMILES): CC(Cc1ccc(O)c(O)c1)C(C)Cc1ccc(O)c(O)c1 (stereo not given) [NORDIHYDROGUAIARETIC ACID]
IC50 [8]: 8.5 µM

Structure (SMILES): COc1ccc(Cn2cc(COc3ccc(/C=C4\SC(=O)NC4=O)cc3)nn2)cc1
IC50 [3]: 5.24 µM

Structure (SMILES): CC(=O)Oc1ccccc1C(=O)O [ASPIRIN]
IC50 [1]: 4.62 µM

Structure (SMILES): O=c1cc(-c2ccccc2)oc2cc(O)c(O)c(O)c12 [BAICALEIN]
IC50 [1]: 22.5 µM

Structure (SMILES): CN(C)c1ccc(/C=C/C(=O)c2cc(-n3cc(CN4C(=O)C(=O)c5ccccc54)nn3)ccc2O)cc1
IC50 [7]: 1.41 µM

Structure (SMILES): COc1ccc2cc(C(C)C(=O)ON=C(N)c3ccc(-c4ccccc4)c(-c4ccccc4)c3)ccc2c1 (stereo not given)
IC50 [4]: 0.00177 µM

Structure (SMILES): COc1ccc2cc(C(C)C(=O)O/N=C(\N)c3ccc(Cl)cc3)ccc2c1 (stereo not given)
IC50 [4]: 0.0064 µM

Structure (SMILES): COc1ccc(/C=C/C(=O)c2cc(-n3cc(CN4C(=O)C(=O)c5ccccc54)nn3)ccc2O)cc1
IC50 [7]: 1.41 µM

Structure (SMILES): COc1ccc(/C(N)=N/OC(=O)C(C)c2ccc3cc(OC)ccc3c2)cc1 (stereo not given)
IC50 [4]: 0.0064 µM

Structure (SMILES): COc1ccnc(Nc2nn3c(C)cc(C)nc3c2C#N)c1
IC50 [8]: 5.6 µM
Activity (Rattus norvegicus): 46%

Structure (SMILES): CC(C)(C)Nc1c(-c2cc3ccccc3nc2Cl)nc2sccn12
IC50 [1]: ≤ 40 µM

Structure (SMILES): CCOc1cc(C)nc2c(C#N)c(Nc3cc(OC)ccn3)nn12
Activity (Rattus norvegicus): 46%
IC50 [9]: 1.7 µM

Structure (SMILES): COc1ccc(-c2nnc(N/N=C/c3ccc(F)cc3)nc2-c2ccc(OC)cc2)cc1
IC50 [10]: 124 µM

Structure (SMILES): CCOC(=O)c1sc(N/N=C/c2ccccc2)nc1C
IC50 [2]: 0.12 µM

Structure (SMILES): CC(C(=O)O)c1cccc(C(=O)c2ccccc2)c1 (stereo not given) [KETOPROFEN]
IC50 [1]: 24.8 µM

Structure (SMILES): CC(=O)Nc1ccc(O)cc1 [ACETAMINOPHEN]
IC50 [1]: 6.52 µM

Structure (SMILES): CN1C(C(=O)Nc2ccccn2)=C(O)c2ccccc2S1(=O)=O [PIROXICAM]
IC50 [1]: 62.6 µM

Structure (SMILES): COc1ccc2cc(C(C)C(=O)ON=C(N)c3ccc4c(c3)OCO4)ccc2c1 (stereo not given)
IC50 [4]: 0.0064 µM

Structure (SMILES): COc1ccc(-c2nnc(N/N=C/c3ccc4c(c3)OCO4)nc2-c2ccc(OC)cc2)cc1
inhibition [11]: 50%

Structure (SMILES): C=CCc1cc(NC(=O)C23CC4CC(CC(C4)C2)C3)ccc1OC(C)C
IC50 [1]: 1.35 µM

Second part, led by results:

IC50 [1]: 21.5 µM
Structure (SMILES): Cc1ccc(OCc2nnc(SCC(=O)Nc3ccccc3)o2)cc1

IC50 [3]: 26.1 µM
Structure (SMILES): O=C(CSc1nnc(C2CCN(C(=O)Nc3ccccc3)CC2)o1)NC1CCCCC1

IC50 [4]: 0.00564 µM
Structure (SMILES): Cc1ccc(Cl)c(Nc2ccccc2C(=O)O)c1Cl [MECLOFENAMATE SODIUM]

IC50 [3]: 26.1 µM
Structure (SMILES): Cc1ccc(C)c(NC(=O)CSc2nnc(C3CCN(C(=O)Nc4ccccc4)CC3)o2)c1

IC50 [3]: 26.1 µM
Structure (SMILES): Cc1cc(C)cc(NC(=O)CSc2nnc(C3CCN(C(=O)Nc4ccccc4)CC3)o2)c1
Activity (Mononuclear cell line): 79.5%

IC50 [3]: 26.1 µM
Structure (SMILES): Cc1ccc(NC(=O)CSc2nnc(C3CCN(C(=O)Nc4ccccc4)CC3)o2)c(C)c1
Activity (Mononuclear cell line): 79.5%

IC50 [3]: 15.8 µM
Structure (SMILES): CCN(CC)C(=O)CSc1nnc(C2CCN(C(=O)Nc3ccccc3)CC2)o1
Activity (Mononuclear cell line): 79.5%

IC50 [3]: 7.15 µM
Structure (SMILES): CCc1ccccc1NC(=O)CSc1nnc(C2CCN(C(=O)Nc3ccccc3)CC2)o1

IC50 [1]: 24.8 µM
Structure (SMILES): Cc1cccc(Nc2ccccc2C(=O)O)c1C [MEFENAMIC ACID]

IC50 [3]: 26.1 µM
Structure (SMILES): CCc1ccc(NC(=O)CSc2nnc(C3CCN(C(=O)Nc4ccccc4)CC3)o2)cc1

IC50 [3]: 9.32 µM
Structure (SMILES): CCCNC(=O)CSc1nnc(C2CCN(C(=O)Nc3ccccc3)CC2)o1

IC50 [3]: 18.4 µM
Structure (SMILES): Cc1cccc(C)c1NC(=O)CSc1nnc(C2CCN(C(=O)Nc3ccccc3)CC2)o1

IC50 [3]: 26.1 µM
Structure (SMILES): Cc1ccc(NC(=O)CSc2nnc(C3CCN(C(=O)Nc4ccccc4)CC3)o2)cc1C

IC50 [3]: 26.1 µM
Structure (SMILES): Cc1cccc(NC(=O)CSc2nnc(C3CCN(C(=O)Nc4ccccc4)CC3)o2)c1

IC50 [3]: 26.1 µM
Structure (SMILES): O=C(CSc1nnc(C2CCN(C(=O)Nc3ccccc3)CC2)o1)Nc1ccccc1

IC50 [1]: 24.8 µM
Structure (SMILES): O=C(O)Cc1ccccc1Nc1c(Cl)cccc1Cl [DICLOFENAC]
